Assay results from patent publication US20220033448A1, “METHODS FOR AGGREGATION OF PROTEINS” (priority 2011, published 2022).
In brackets after ≈: the same amount, converted by molar mass. Non-standard residues stand in square brackets, D forms with d. Residues, ends and D or L forms follow the SMILES beside them. No end group written: not given here. PEG3 = NCCOCCOCCOCCC(=O)O; AEEA = NCCOCCOCC(=O)O

Legend:
[1] = test system: Corynebacterium
Method: (§1) Bacteria were grown in a shaking incubator at 37° C. and 160rpm in 50 ml BHI , using individual colonies retrieved from a fresh overnight TSA-sheep blood plate. The cultures were grown to a density of approximately 1×10^8cells/ml and then diluted to 5×10^5 cells/ml in CAMHB (Mc Farland 0.5). Each well contained 100p.I (50p.I of peptide containing MHB plus 50 μl inoculum). The final cell density was 1×10^5 to 5×10^5/ml. After addition of the cell suspension, plates were incubated at 37° C. for 18 to 24 hours. The optical density at 590 nm (OD590) of each well was measured after 5 seconds of shaking the plate using Perkin Elmer spectrophotometer (1420 Multilabel Counter Vicotr 3). […] Each well, where no growth was observed, was also plated on TSA-sheep blood agar plates, incubated at 37° C. overnight and visually inspected.
(§2) A microbroth dilution method was used with twofold serial dilutions in CAMHB (according to EMEA guidelines) was used for screening of peptide activity, with concentrations ranging from 0.3 μg/mIto 200 μg/ml.

[2] = test system: B. cereus
Method: as §1, §2

[3] = test system: E. coli
Method: as §1, §2

[4] = test system: S. hominis
Method: as §1, §2

[5] = test system: S. epidermidis
Method: as §1, §2

[6] = test system: Nocardia asteroides
Method: as §1, §2

[7] = test system: Klebsiella pneumoniae; format: cell-based
[8] = test system: E. faecalis
Method: as §1, §2

[9] = test system: Salmonella typhi ATCC14028; format: cell-based
[10] = test system: S. aureus
Method: as §1, §2

[11] = test system: human erythrocytes; format: cell-based
Text: The detergent Tween was used as a positive control, causing 100% lysis of RBCs.

Molecule	Minimum inhibitory concentrations MIC90 [2] [µg/mL]	Minimum inhibitory concentrations MIC90 [3] [µg/mL]	Minimum inhibitory concentrations MIC90 [4] [µg/mL]	Minimum inhibitory concentrations MIC90 [5] [µg/mL]	Minimum inhibitory concentrations MIC90 [6] [µg/mL]	Minimum inhibitory concentrations MIC90 [7] [µg/mL]	Minimum inhibitory concentrations MIC90 [8] [µg/mL]	Minimum inhibitory concentrations MIC90 [9] [µg/mL]	MIC value [10] [µg/mL]	MIC value [5] [µg/mL]	other results
CC[C@@H](C)[C@@H](NC(=O)[C@H](N)CCCNC(=N)N)C(=O)N[C@H](CC(C)C)C(=O)N[C@H](CC(C)C)C(=O)NCC(=O)N[C@H](CC(C)C)C(=O)N[C@@H](C(=O)N[C@H](CCCNC(=N)N)C(=O)N[C@H](CCCNC(=N)N)C(=O)NCC(=O)N[C@H](CO)C(=O)N[C@H](CCCNC(=N)N)C(=O)N[C@@H](C(=O)N[C@H](CC(C)C)C(=O)N[C@H](CC(C)C)C(=O)NCC(=O)N[C@H](CC(C)C)C(=O)N[C@@H](C(=O)N[C@H](CCCNC(=N)N)C(=O)N[C@H](CCCNC(=N)N)C(=O)O)[C@H](C)CC)[C@H](C)CC)[C@H](C)CC [DAA] (H-[dR][dI][dL][dL]G[dL][dI][dR][dR]G[dS][dR][dI][dL][dL]G[dL][dI][dR][dR]-OH; N-terminus and C-terminus assumed)	6 (≈ 2.56 µM)	25 (≈ 10.7 µM)	1.5 (≈ 0.64 µM)	1.5 (≈ 0.64 µM)	>200	25 (≈ 10.7 µM)	6 (≈ 2.56 µM)	100 (≈ 42.6 µM)	–	–	Minimum inhibitory concentrations MIC90 [1]: >200 µg/mL
CC[C@H](C)[C@H](NC(=O)[C@H](CC(C)C)NC(=O)CNC(=O)[C@H](CC(C)C)NC(=O)[C@H](CC(C)C)NC(=O)[C@@H](NC(=O)[C@H](CCCNC(=N)N)NC(=O)[C@H](CO)NC(=O)CNC(=O)[C@H](CCCNC(=N)N)NC(=O)[C@H](CCCNC(=N)N)NC(=O)[C@@H](NC(=O)[C@H](CC(C)C)NC(=O)CNC(=O)[C@H](CC(C)C)NC(=O)[C@H](CC(C)C)NC(=O)[C@@H](NC(=O)[C@H](CCCNC(=N)N)NC(=O)COCCOCCN)[C@@H](C)CC)[C@@H](C)CC)[C@@H](C)CC)C(=O)N[C@@H](CCCNC(=N)N)C(=O)N[C@@H](CCCNC(=N)N)C(=O)O [P2153] (H-[AEEA]RILLGLIRRGSRILLGLIRR-OH)	6 (≈ 2.41 µM)	25 (≈ 10 µM)	3 (≈ 1.2 µM)	12.5 (≈ 5.02 µM)	6 (≈ 2.41 µM)	50 (≈ 20.1 µM)	25 (≈ 10 µM)	>200	–	–	–
CC[C@H](C)[C@H](NC(=O)[C@H](CC(C)C)NC(=O)CNC(=O)[C@H](CC(C)C)NC(=O)[C@H](CC(C)C)NC(=O)[C@@H](NC(=O)[C@H](CCCNC(=N)N)NC(=O)[C@H](CO)NC(=O)CNC(=O)[C@H](CCCNC(=N)N)NC(=O)[C@H](CCCNC(=N)N)NC(=O)[C@@H](NC(=O)[C@H](CC(C)C)NC(=O)CNC(=O)[C@H](CC(C)C)NC(=O)[C@H](CC(C)C)NC(=O)[C@@H](NC(=O)[C@H](CCCNC(=N)N)NC(=O)CCOCCOCCOCCN)[C@@H](C)CC)[C@@H](C)CC)[C@@H](C)CC)C(=O)N[C@@H](CCCNC(=N)N)C(=O)N[C@@H](CCCNC(=N)N)C(=O)O [P2154] (H-[PEG3]RILLGLIRRGSRILLGLIRR-OH)	12.5 (≈ 4.91 µM)	50 (≈ 19.6 µM)	3 (≈ 1.18 µM)	12.5 (≈ 4.91 µM)	6 (≈ 2.35 µM)	100 (≈ 39.2 µM)	12.5 (≈ 4.91 µM)	>200	–	–	–
CC[C@H](C)[C@H](NC(=O)[C@H](CC(C)C)NC(=O)CNC(=O)[C@H](CC(C)C)NC(=O)[C@H](CC(C)C)NC(=O)[C@@H](NC(=O)[C@H](CCCNC(=N)N)NC(=O)COCCOCCNC(=O)[C@H](CCCNC(=N)N)NC(=O)[C@H](CCCNC(=N)N)NC(=O)[C@@H](NC(=O)[C@H](CC(C)C)NC(=O)CNC(=O)[C@H](CC(C)C)NC(=O)[C@H](CC(C)C)NC(=O)[C@@H](NC(=O)[C@@H](N)CCCNC(=N)N)[C@@H](C)CC)[C@@H](C)CC)[C@@H](C)CC)C(=O)N[C@@H](CCCNC(=N)N)C(=O)N[C@@H](CCCNC(=N)N)C(N)=O [P2175/P1] (H-RILLGLIRR[AEEA]RILLGLIRR-NH2)	12.5 (≈ 5.33 µM)	25 (≈ 10.7 µM)	3 (≈ 1.28 µM)	12.5 (≈ 5.33 µM)	3 (≈ 1.28 µM)	50 (≈ 21.3 µM)	12.5 (≈ 5.33 µM)	50 (≈ 21.3 µM)	–	–	Minimum inhibitory concentrations MIC90 [1]: >200 µg/mL
CC[C@H](C)[C@H](NC(=O)[C@H](CC(C)C)NC(=O)CNC(=O)[C@H](CC(C)C)NC(=O)[C@H](CC(C)C)NC(=O)[C@@H](NC(=O)[C@H](CCCNC(=N)N)NC(=O)COCCOCCNC(=O)[C@H](CCCNC(=N)N)NC(=O)[C@H](CCCNC(=N)N)NC(=O)[C@@H](NC(=O)[C@H](CC(C)C)NC(=O)CNC(=O)[C@H](CC(C)C)NC(=O)[C@H](CC(C)C)NC(=O)[C@@H](NC(=O)[C@@H](N)CCCNC(=N)N)[C@@H](C)CC)[C@@H](C)CC)[C@@H](C)CC)C(=O)N[C@@H](CCCNC(=N)N)C(=O)N[C@@H](CCCNC(=N)N)C(N)=O [P2175/P2] (H-RILLGLIRR[AEEA]RILLGLIRR-NH2)	12.5 (≈ 5.33 µM)	50 (≈ 21.3 µM)	1.5 (≈ 0.64 µM)	6 (≈ 2.56 µM)	6 (≈ 2.56 µM)	100 (≈ 42.6 µM)	6 (≈ 2.56 µM)	25 (≈ 10.7 µM)	–	–	Minimum inhibitory concentrations MIC90 [1]: >200 µg/mL
Ac-RILLGLIRRGSRILLGLIRR-NH2 [P2170/P1]	6	25	3	6	6	>200	12.5	100	–	–	Minimum inhibitory concentrations MIC90 [1]: >200 µg/mL; Minimum inhibitory concentrations MIC90 [10]: 12.5 µg/mL
Ac-RILLGLIRRGSRILLGLIRR-NH2 [P2170/P2]	6	25	3	12.5	3	>200	12.5	100	–	–	Minimum inhibitory concentrations MIC90 [1]: 100 µg/mL; Minimum inhibitory concentrations MIC90 [10]: 12.5 µg/mL
H-RILLGLIRRGSRILLGLIRR-OH [P2151]	12.5	25	3	12.5	12.5	25	25	100	–	–	–
RFFIGLSRRGSRIQAYLYRR [Hit50A]	–	–	–	–	–	–	–	–	–	–	MIC values against MRSA 326 [10]: 50 µg/mL; MIC values against S.aureus ATCC 29213 [10]: 100 µg/mL; MIC values against B.cereus ATCC [2]: 50 µg/mL
RLFNFLKRGSRLFNFLKR [C29/Hit11]	–	–	–	–	–	–	–	–	–	–	MIC values against Corynebacterium [1]: 6 µg/mL; MIC values against MRSA 326 [10]: 12.5 µg/mL; MIC values against S.aureus ATCC 29213 [10]: 12.5 to 25 µg/mL; MIC values against B.cereus ATCC [2]: 6 to 12.5 µg/mL; hemolytic activity [11]: no significant hemolytic activity at clinically relevant concentrations
RRIIGIIARPPRVLVTLLRR [mtop_22]	–	–	–	–	–	–	–	–	<200	50	–
RRIILFILRPPRLILFLGRR [mtop_1]	–	–	–	–	–	–	–	–	200	50	–
RRILGLIARPPRIAFVILRR [mtop_18]	–	–	–	–	–	–	–	–	<200	50	–
RRILLGLIRPPRTIIGLVRR [mtop_11]	–	–	–	–	–	–	–	–	>200	12.5	–
RRILLLIARPPRILLGAIRR [mtop_12]	–	–	–	–	–	–	–	–	>200	12.5	–
RRLLGLIIRPPRAIALTLRR [mtop_17]	–	–	–	–	–	–	–	–	50	100	–
RRWVSMLLRRGSRWVSMLLRR [Hit14]	–	–	–	–	–	–	–	–	–	–	MIC values against B.cereus ATCC [2]: 100 µg/mL; MIC values against S.epidermidis ATCC 12228 [5]: 50 µg/mL
RWVSMLLRRGSRVGYVIARR [Hit37]	–	–	–	–	–	–	–	–	–	–	MIC values against MRSA 326 [10]: 100 µg/mL; MIC values against S.aureus ATCC 29213 [10]: 100 µg/mL; MIC values against B.cereus ATCC [2]: >100 µg/mL
